From US9408389B2 (Rohm and Haas Company, priority 2013, dated 2016)

Columns and labels:
[1] = system: Stichococcus bacillaris SAG 379-1a / CCAP 379/1a; assay: Algal efficacy testing of dry paint films (modified ASTM D5589-09), Stichococcus; assay type: cell-based; conditions: 672 h
Experimental: (§1) Slurries containing 33% flurochloridone were post added to a white, acrylic/silicone based outdoor paint free of biocides to give a total active ingredient concentration of 10000 and 1000 ppm respectively. These paints were then diluted with an antimicrobial free acrylic/silicone based paint and mixed to prepare targeted concentrations of antimicrobial compounds for the testing. The total biocides concentrations tested were 125, 250, 500, 1000, 2000 and 5000 ppm. After biocides addition or dilution, the paints were mixed 90 seconds with the horse power shaker (AXEL 75M3372/Agitateur SO-10MI) until uniformity was achieved. Paints containing different antimicrobial compounds at the same levels were mixed together in order to obtain the desired ratio of antimicrobial compounds. After one day, the paints were applied to Schleicher & Schuell filter paper at 280 μm wet film thickness and dried for 3 days at room temperature avoiding direct exposure to sunlight. Square discs (1.6 cm×1.6 cm) were cut out from each panel and were used as the substrate for algal efficacy tests. This sample size allowed for an agar border when the sample disc was placed into the well of the test plate. […]
(§2) At the end of the four week incubation period, the samples were scored for percent inhibition regarding visible algal growth compared to the blank sample (0% inhibition).
(§3) The SI is calculated based on F. C. […]

Chlorella sp. ATCC 7516 = assay: Algal efficacy testing of dry paint films (modified ASTM D5589-09), Chlorella; assay type: cell-based; conditions: 672 h
Experimental: as §1, §2, §3

Compound	inhibition at 2000 ppm ([1]; Stichococcus, total conc 2000 ppm in paint, 4 weeks, visible algal growth vs blank) [%]	inhibition at 2000 ppm (Chlorella sp. ATCC 7516; total conc 2000 ppm in paint, 4 weeks, visible algal growth vs blank) [%]	inhibition at 5000 ppm [1] [%]	inhibition at 5000 ppm (Chlorella sp. ATCC 7516) [%]
O=C1C(Cl)C(CCl)CN1c1cccc(C(F)(F)F)c1 (stereo not shown) [Flurochloridone, 3-chloro-4-(chloromethyl)-1-[3-(trifluoromethyl)phenyl]-2-pyrrolidinone]	50	60		
O=c1[nH]c2c(c(=O)n1C1CCCCC1)CCC2 [Lenacil, 3-cyclohexyl-1,5,6,7-tetrahydrocyclopentapyrimidine-2,4(3H)-dione]			65	45
